Article PMC6112376, “Comprehensive Analyses and Prioritization of Tox21 10K Chemicals Affecting Mitochondrial Function by in-Depth Mechanistic Studies” (Environmental Health Perspectives, 2018)
Where two headings read alike, the source gives them in different places.

How the values were obtained:
HepG2 cells [1] = conditions: cited from earlier work
rat primary hepatocytes = assay: MMP assay in rat primary hepatocytes; conditions: for IC50: read-out: MMP assays IC50 (µM) Rat Hepatocytes
HepG2 cells [2] = conditions: HepG2 cells, single number from one experiment; for IC50: read-out: MMP assays IC50 (µM) HepG2
[3] = read-out: MMP assays IC50 (µM), qHTS-HepG2
[4] = rat hepatocytes, mean ± SD of three experiments
[5] = read-out: MMP assays IC50 (µM) qHTS-HepG2

SMILES: CCOc1ccc2[nH]cc(C(=O)NCc3ccccc3)c(=O)c2n1
- MMP assays efficacy (%) qHTS-HepG2 (HepG2 cells [1]): -88±7%
- IC50 (HepG2 cells [1]; [3]): 14.8 ± 9.66 µM
- MMP assays efficacy (%) Rat Hepatocytes (rat primary hepatocytes; [4]): -80±31%
- IC50 (rat primary hepatocytes; [4]): 24 ± 16.6 µM
- MMP assays efficacy (%) HepG2 (HepG2 cells [2]): -92%
- IC50 (HepG2 cells [2]): 15.8 µM

SMILES: CCC(=O)O[C@]1(C(=O)CCl)[C@@H](C)C[C@H]2[C@@H]3CCC4=CC(=O)C=C[C@]4(C)[C@@]3(F)[C@@H](O)C[C@@]21C [Clobetasol propionate]
- MMP assays efficacy (%) qHTS-HepG2 (HepG2 cells [1]): -98±19%
- IC50 (HepG2 cells [1]; [5]): 24.6 ± 1.67 µM
- IC50 (rat primary hepatocytes; Rattus norvegicus, Hepatocyte): 24.1 ± 9.54 µM
- MMP assays efficacy (%) Rat Hepatocytes (rat primary hepatocytes; [4]): -39±3%
- MMP assays IC50 (µM) HepG2 (HepG2 cells [2]): inactive
- MMP assays efficacy (%) HepG2 (HepG2 cells [2]): inactive

SMILES: Nc1nc2ccc([N+](=O)[O-])cc2s1 [Compound 2-Amino-6-nitrobenzothiazole]
- MMP assays efficacy (%) qHTS-HepG2 (HepG2 cells [1]): -70±17%
- IC50 (HepG2 cells [1]; [5]): 12.7 ± 10.5 µM
- MMP assays efficacy (%) Rat Hepatocytes (rat primary hepatocytes; [4]): -81±29%
- IC50 (rat primary hepatocytes; [4]): 22.7 ± 20.4 µM
- MMP assays efficacy (%) HepG2 (HepG2 cells [2]): -89%
- IC50 (HepG2 cells [2]): 44.7 µM

SMILES: COc1cc(Cl)ccc1Cl [2,5-Dichloroanisole]
- MMP assays IC50 (µM) qHTS-HepG2 (HepG2 cells [1]): inactive
- MMP assays efficacy (%) qHTS-HepG2 (HepG2 cells [1]): inactive
- MMP assays IC50 (µM) Rat Hepatocytes (rat primary hepatocytes; [4]): inactive
- MMP assays efficacy (%) Rat Hepatocytes (rat primary hepatocytes; [4]): inactive
- MMP assays IC50 (µM) HepG2 (HepG2 cells [2]): inactive
- MMP assays efficacy (%) HepG2 (HepG2 cells [2]): inactive

SMILES: O=CC=C(c1ccccc1)c1ccccc1 [2-Propenal,3,3-diphenyl-]
- MMP assays efficacy (%) qHTS-HepG2 (HepG2 cells [1]): -87±29%
- IC50 (HepG2 cells [1]; [5]): 41.2 ± 19.3 µM
- MMP assays efficacy (%) Rat Hepatocytes (rat primary hepatocytes; [4]): -78±36%
- IC50 (rat primary hepatocytes; [4]): 17.1 ± 23.9 µM
- MMP assays efficacy (%) HepG2 (HepG2 cells [2]): -40%
- IC50 (HepG2 cells [2]): 56.2 µM

SMILES: COC(=O)C1=C(C)NC(C)=C(C(=O)OCC(C)=O)C1c1ccccc1[N+](=O)[O-] (stereo not drawn) [Aranidipine]
- MMP assays efficacy (%) qHTS-HepG2 (HepG2 cells [1]): -56±6%
- IC50 (HepG2 cells [1]; [5]): 12.8 ± 3.68 µM
- MMP assays IC50 (µM) Rat Hepatocytes (rat primary hepatocytes; [4]): inactive
- MMP assays efficacy (%) Rat Hepatocytes (rat primary hepatocytes; [4]): inactive
- MMP assays IC50 (µM) HepG2 (HepG2 cells [2]): inactive
- MMP assays efficacy (%) HepG2 (HepG2 cells [2]): inactive

SMILES: CCCCCCCCCCn1cc[n+](C)c1.F[B-](F)(F)F [1-Decyl-3-methylimidazolium tetrafluoroborate]
- MMP assays efficacy (%) qHTS-HepG2 (HepG2 cells [1]): -68±12%
- IC50 (HepG2 cells [1]; [5]): 3.87 µM
- MMP assays efficacy (%) Rat Hepatocytes (rat primary hepatocytes; [4]): -100±10%
- IC50 (rat primary hepatocytes; [4]): 16.8 ± 7.73 µM
- MMP assays efficacy (%) HepG2 (HepG2 cells [2]): -104%
- IC50 (HepG2 cells [2]): 7.08 µM

SMILES: CC1C2CC(CC2C2CCCC(O)C2)C1(C)C (stereo not drawn)
- MMP assays efficacy (%) qHTS-HepG2 (HepG2 cells [1]): -98±23%
- IC50 (HepG2 cells [1]; [5]): 31.8 ± 17.5 µM
- MMP assays IC50 (µM) Rat Hepatocytes (rat primary hepatocytes; [4]): inactive
- MMP assays efficacy (%) Rat Hepatocytes (rat primary hepatocytes; [4]): inactive
- MMP assays efficacy (%) HepG2 (HepG2 cells [2]): -108%
- IC50 (HepG2 cells [2]): 39.8 µM

SMILES: CCCCCCCCCCCC[n+]1ccc2ccccc2c1.Cc1ccc(S(=O)(=O)[O-])cc1 [2-Dodecylisoquinolinium tosylate]
- MMP assays efficacy (%) qHTS-HepG2 (HepG2 cells [1]): -83±5%
- IC50 (HepG2 cells [1]; [5]): 3.53 ± 0.5 µM
- MMP assays efficacy (%) Rat Hepatocytes (rat primary hepatocytes; [4]): -95±7%
- IC50 (rat primary hepatocytes; [4]): 4.94 ± 2.78 µM
- MMP assays efficacy (%) HepG2 (HepG2 cells [2]): -110%
- IC50 (HepG2 cells [2]): 4.35 µM

SMILES: c1ccc2c(c1)OCC(C1=NCCN1)O2 (stereo not drawn) [Idazoxan]
- MMP assays efficacy (%) qHTS-HepG2 (HepG2 cells [1]): -60±9%
- IC50 (HepG2 cells [1]; [3]): 20.6 ± 7.46 µM
- MMP assays IC50 (µM) Rat Hepatocytes (rat primary hepatocytes; [4]): inactive
- MMP assays efficacy (%) Rat Hepatocytes (rat primary hepatocytes; [4]): inactive
- MMP assays IC50 (µM) HepG2 (HepG2 cells [2]): inactive
- MMP assays efficacy (%) HepG2 (HepG2 cells [2]): inactive

SMILES: C[C@H](/C=C/[C@H](C)C(C)(C)O)[C@H]1CC[C@H]2/C(=C/C=C3C[C@@H](O)C[C@H](O)C3)CCC[C@]12C [Paricalcitol]
- MMP assays efficacy (%) qHTS-HepG2 (HepG2 cells [1]): -69±16%
- IC50 (HepG2 cells [1]; [3]): 8.91 ± 1.56 µM
- MMP assays IC50 (µM) Rat Hepatocytes (rat primary hepatocytes; [4]): inactive
- MMP assays efficacy (%) Rat Hepatocytes (rat primary hepatocytes; [4]): inactive
- MMP assays IC50 (µM) HepG2 (HepG2 cells [2]): inactive
- MMP assays efficacy (%) HepG2 (HepG2 cells [2]): inactive

SMILES: CC(C)(c1cc(Br)c(O)c(Br)c1)c1cc(Br)c(O)c(Br)c1 [3,3φ,5,5φ-Tetrabromobisphenol A]
- MMP assays efficacy (%) qHTS-HepG2 (HepG2 cells [1]): -123±2%
- IC50 (HepG2 cells [1]; [5]): 13.2 ± 12.2 µM
- MMP assays efficacy (%) Rat Hepatocytes (rat primary hepatocytes; [4]): -76±30%
- IC50 (rat primary hepatocytes; [4]): 36.9 ± 12.6 µM
- MMP assays efficacy (%) HepG2 (HepG2 cells [2]): -98%
- IC50 (HepG2 cells [2]): 17.8 µM
